Experimental data taken from US8969380B2, “Secondary 8-hydroxyquinoline-7-carboxamide derivatives for use as antifungal agents” (Polichem SA, priority 2009, dated 2015).
Converted amounts (≈) assume the structure as drawn.

Key:
[1] = system: Trichophyton Mentagrophytes (ATCC 9533); test: Broth micro-dilution susceptibility test (MIC); type: cell-based; conditions: ATCC9533, 120 h, geometric mean of two single experiments, five days at 35° C., read-out: MIC Tricophyton Mentagrophytes ATCC 9533
Protocol: (§1) Trichophyton Rubrum (ATCC 28188, PBI International); Trichophyton Mentagrophytes (ATCC 9533, PBI International); Aspergillus Niger (ATCC 16404, PBI International); Scopulariopsis Brevicaulis (ATCC 36840, DSMZ); Candida Albicans (ATCC 90028, PBI International); Candida Glabrata (ATCC 90030, DSMZ).
(§2) Strains were prepared from freeze-dried ampoules or freeze-dried pellets. An isolation of the suspensions was made on Potato Dextrose Agar (PDA) to test the strains purity. A strains' massive growth was then made streaking microbial suspensions on PDA plates.
(§3) Incubation was at 30° C. for 48-72 Hours (Candida yeasts) and for 7-10 days (filamentous fungi).
(§4) The yeasts' colonies and the filamentous fungi's conidia were harvested with 3-5 mL of RPMI 1640+50% glycerol and the aliquots frozen at −80° C.
(§5) Compounds' minimal inhibition concentration (MIC) was determined through broth micro-dilution susceptibility test using a method developed in agreement with the National Committee for Clinical Laboratory Standards (NCCLS) (National Committee for Clinical Laboratory Standards. Reference Method for Broth Dilution Antifungal Susceptibility Testing of Yeasts; Approved standard-Second Edition M27-A2. 2002; Vol. 22, No. 15) (National Committee for Clinical Laboratory Standards. Reference Method for Broth Dilution Antifungal Susceptibility Testing of Filamentous Fungi; Approved standard M38-A. 2002; Vol. 22, No. 16).
(§6) Assays were carried out in RPMI 1640 with L-glutamine medium buffered to pH 7 with 0.165M 3-(N-morpholino)propanesulfonic acid (MOPS) and 10M NaOH and supplemented with 18 g glucose/liter. The tests were performed using 96 well sterile plates (inoculum size of 1×10^5 CFU/mL). Compounds stock solutions were prepared at 12.8 mg/mL in 100% DMSO. A series of twofold dilutions were prepared in plate using RPMI 1640. Final concentrations ranged from 0.125 to 128 μg/mL at 1% DMSO.

[2] = system: Trichophyton Rubrum (ATCC 28188); test: Broth micro-dilution susceptibility test (MIC); type: cell-based; conditions: ATCC28188, 120 h, geometric mean of two single experiments, five days at 35° C., read-out: MIC Trycophyton Rubrum ATCC 28188
Protocol: as §1, §2, §3, §4, §5, §6

[3] = system: Aspergillus Niger (ATCC 16404); test: Broth micro-dilution susceptibility test (MIC); type: cell-based; conditions: ATCC16404, 120 h, geometric mean of two single experiments, five days at 35° C.
Protocol: as §1, §2, §3, §4, §5, §6

[4] = system: Scopulariopsis Brevicaulis (ATCC 36840); test: Broth micro-dilution susceptibility test (MIC); type: cell-based; conditions: ATCC36840, 120 h, geometric mean of two single experiments, five days at 35° C.
Protocol: as §1, §2, §3, §4, §5, §6

[5] = system: Candida Albicans (ATCC 90028); test: Broth micro-dilution susceptibility test (MIC); type: cell-based; conditions: ATCC90028, geometric mean of two single experiments, 48 h at 35° C.
Protocol: as §1, §2, §3, §4, §5, §6

[6] = system: Candida Glabrata (ATCC 90030); test: Broth micro-dilution susceptibility test (MIC); type: cell-based; conditions: Nakaseomyces glabratus, ATCC90030; geometric mean of two single experiments; 48 h at 35° C.
Protocol: as §1, §2, §3, §4, §5, §6

[7] = system: Candida Glabrata (ATCC 90030); test: Assessment of the mechanism of action: antifungal activity with or without 100 μM Fe3+; type: cell-based; conditions: 100 μM FeCl3 in the test medium, OD at 540 nm
Protocol: To verify if the compounds mechanism of action is the chelation of iron ions, the MIC determination with Candida glabrata (ATCC 90030) strain was performed by the addition of excessive iron ions (100 μM FeCl3) in the test medium. The viability of cells exposed to drugs, with or without the metal ion Fe^3+, was evaluated by the OD measure at 540 nm.
The potency of compounds described in Example 3, 4, 11 12, E8 and NiK-29298 were evaluated on Candida glabrata in presence and in absence of 100 μM (100 micromoles) Fe^3+.
In all figures, the lines and dots represent the percent inhibition of the fungal growth (in ordinate) by adding different concentrations of antifungal agents (in abscissa). Blue lines and dots are the experiments performed without iron supplementation, while red lines and dots represent the results of the experiments performed in presence of 100 μM Fe^3+. […] Conversely, Fe^3+ has no effect on amphotericin, an antifungal agent known in the art to have a mechanism of action different from that of ciclopirox.

[8] = system: 6 strains tested, including yeasts, dermatophytes and molds; test: Spectrum of antifungal activity over the 6 strains tested; type: cell-based; conditions: 6 strains: yeasts
Protocol: as §1, §5, §6

[9] = system: invasive aspergillosis; conditions: daily administered at 10 mg/kg; cited from earlier work

| SMILES | MIC [1] | MIC [2] | MIC [3] | MIC [4] | MIC [5] | MIC [6] | Effect of Fe3+ on the antifungal activity (percent inhibition of fungal growth) [7] | Spectrum of antifungal activity [8] | rates of nephrotoxicity [9] |
| --- | --- | --- | --- | --- | --- | --- | --- | --- | --- |
| O=C(NCc1ccco1)c1ccc2cccnc2c1O [Example 9, 8-Hydroxy-N-(furan-2-ylmethyl)quinoline-7-carboxamide] | 1 µg/mL (≈ 3.73 µM) | 0.71 µg/mL (≈ 2.65 µM) | 1 µg/mL (≈ 3.73 µM) | 0.71 µg/mL (≈ 2.65 µM) | 0.71 µg/mL (≈ 2.65 µM) | 0.71 µg/mL (≈ 2.65 µM) |  |  |  |
| O=C(NCc1ccccc1)c1ccc2cccnc2c1O [Example 3, 8-Hydroxy-N-benzyl-quinoline-7-carboxamide] | 0.18 µg/mL (≈ 0.647 µM) | 0.35 µg/mL (≈ 1.26 µM) | 0.18 µg/mL (≈ 0.647 µM) | 0.35 µg/mL (≈ 1.26 µM) | 1 µg/mL (≈ 3.59 µM) | 1 µg/mL (≈ 3.59 µM) |  |  |  |
| O=C(NCc1ccc(OCc2ccccc2)cc1)c1ccc2ncccc2c1 [Example E8] |  |  |  |  |  |  | not inhibited | active only on yeasts |  |
| O=C(NCC1CCCCC1)c1ccc2cccnc2c1O [Example 2, 8-Hydroxy-N-(cyclohexylmethyl)quinoline-7-carboxamide] | 0.71 µg/mL (≈ 2.5 µM) | 1 µg/mL (≈ 3.52 µM) | 0.35 µg/mL (≈ 1.23 µM) | 2 µg/mL (≈ 7.03 µM) | 1.41 µg/mL (≈ 4.96 µM) | 1.41 µg/mL (≈ 4.96 µM) |  |  |  |
| O=C(NCc1cccnc1)c1ccc2cccnc2c1O [Example 10, 8-Hydroxy-N-(pyridin-3-ylmethyl)quinoline-7-carboxamide] | 2 µg/mL (≈ 7.16 µM) | 2 µg/mL (≈ 7.16 µM) | 1 µg/mL (≈ 3.58 µM) | 1 µg/mL (≈ 3.58 µM) | 4 µg/mL (≈ 14.3 µM) | 11.3 µg/mL (≈ 40.5 µM) |  |  |  |
| C[C@@H]1[C@H](O)[C@@H](C)/C=C/C=C/C=C/C=C/C=C/C=C/C=C/[C@H](O[C@@H]2O[C@H](C)[C@@H](O)[C@H](N)[C@@H]2O)C[C@@H]2O[C@](O)(C[C@@H](O)C[C@@H](O)[C@H](O)CC[C@@H](O)C[C@@H](O)CC(=O)O[C@H]1C)C[C@H](O)[C@H]2C(=O)O [amphotericin, Amphotericin B] |  |  |  |  |  |  | no effect |  | 31% |
| Cc1cc(C2CCCCC2)n(O)c(=O)c1 [ciclopirox] |  |  |  |  |  |  | completely inhibited |  |  |
| O=C(NCc1ccccc1)c1ccc2ncccc2c1 [NiK-29298] |  |  |  |  |  |  | not inhibited | active only on yeasts |  |
| COc1ccc(NC(=O)c2ccc3cccnc3c2O)cc1 [Example 5, 8-Hydroxy-N-(4-methoxyphenyl)quinoline-7-carboxamide] | 0.5 µg/mL (≈ 1.7 µM) | 0.35 µg/mL (≈ 1.19 µM) | 0.71 µg/mL (≈ 2.41 µM) | 0.71 µg/mL (≈ 2.41 µM) | 0.5 µg/mL (≈ 1.7 µM) | 0.71 µg/mL (≈ 2.41 µM) |  |  |  |
| COc1ccc(CNC(=O)c2ccc3cccnc3c2O)cc1 [Example 11, 8-Hydroxy-N-(4-methoxybenzyl)quinoline-7-carboxamide] | 1 µg/mL (≈ 3.24 µM) | 1 µg/mL (≈ 3.24 µM) | 1 µg/mL (≈ 3.24 µM) | 1 µg/mL (≈ 3.24 µM) | 2 µg/mL (≈ 6.49 µM) |  |  |  |  |

Continued, in another order:

| MIC [1] | MIC [2] | MIC [3] | MIC [4] | MIC [5] | MIC [6] | SMILES | Effect of Fe3+ on the antifungal activity (percent inhibition of fungal growth) [7] | Spectrum of antifungal activity [8] | rates of nephrotoxicity [9] |
| --- | --- | --- | --- | --- | --- | --- | --- | --- | --- |
| 0.5 µg/mL (≈ 1.7 µM) | 0.71 µg/mL (≈ 2.41 µM) | 0.25 µg/mL (≈ 0.849 µM) | 1 µg/mL (≈ 3.4 µM) | 2 µg/mL (≈ 6.8 µM) | 2 µg/mL (≈ 6.8 µM) | O=C(NCc1ccccc1O)c1ccc2cccnc2c1O [Example 8, 8-Hydroxy-N-(2-hydroxybenzyl)quinoline-7-carboxamide] |  |  |  |
| 0.71 µg/mL (≈ 2.69 µM) | 0.5 µg/mL (≈ 1.89 µM) | 0.5 µg/mL (≈ 1.89 µM) | 2 µg/mL (≈ 7.57 µM) | 0.5 µg/mL (≈ 1.89 µM) | 1 µg/mL (≈ 3.78 µM) | O=C(Nc1ccccc1)c1ccc2cccnc2c1O [Example 7, 8-Hydroxy-N-phenyl-quinoline-7-carboxamide] |  |  |  |
| 0.5 µg/mL (≈ 1.6 µM) | 0.71 µg/mL (≈ 2.27 µM) | 0.35 µg/mL (≈ 1.12 µM) | 0.71 µg/mL (≈ 2.27 µM) | 2 µg/mL (≈ 6.39 µM) | 1 µg/mL (≈ 3.2 µM) | O=C(NCc1ccc(Cl)cc1)c1ccc2cccnc2c1O [Example 4, 8-Hydroxy-N-(4-chlorobenzyl)quinoline-7-carboxamide] |  |  |  |
| 1 µg/mL (≈ 2.89 µM) | 1.41 µg/mL (≈ 4.07 µM) | 0.5 µg/mL (≈ 1.44 µM) | 1.41 µg/mL (≈ 4.07 µM) | 1.41 µg/mL (≈ 4.07 µM) | 1.41 µg/mL (≈ 4.07 µM) | O=C(NCc1ccc(C(F)(F)F)cc1)c1ccc2cccnc2c1O [Example 6, 8-Hydroxy-N-(4-(trifluoromethyl)benzyl)quinoline-7-carboxamide] |  |  |  |
| 0.5 µg/mL (≈ 1.76 µM) | 0.5 µg/mL (≈ 1.76 µM) | 0.25 µg/mL (≈ 0.879 µM) | 0.25 µg/mL (≈ 0.879 µM) | 1 µg/mL (≈ 3.52 µM) | 1 µg/mL (≈ 3.52 µM) | O=C(NCc1cccs1)c1ccc2cccnc2c1O [Example 1, 8-Hydroxy-N-(thiophen-2-ylmethyl)quinoline-7-carboxamide] |  |  |  |
